pKi: −log10 of the molar value. Where two headings read alike, the source gives them in different places. One block for each compound: values may come before it.
Assays:
[1] = biological target: T1, human recombinant adrenergic α2A receptor (Homo sapiens, UniProt P08913); assay: Radioligand binding, adrenergic α2A ([3H]MK-912); details: for Percentage inhibition of ligand binding, Adrenergic α2A (0.1 μM): compound at 0.1 μM; for Percentage inhibition of ligand binding, Adrenergic α2A (0.1 μM) / Percentage inhibition of ligand binding, Adrenergic α2A: 0.1 µM
T1 construct: expressed in transfected cells; host or cells: insect Sf9 cells
T1 sequence (P08913 1-465): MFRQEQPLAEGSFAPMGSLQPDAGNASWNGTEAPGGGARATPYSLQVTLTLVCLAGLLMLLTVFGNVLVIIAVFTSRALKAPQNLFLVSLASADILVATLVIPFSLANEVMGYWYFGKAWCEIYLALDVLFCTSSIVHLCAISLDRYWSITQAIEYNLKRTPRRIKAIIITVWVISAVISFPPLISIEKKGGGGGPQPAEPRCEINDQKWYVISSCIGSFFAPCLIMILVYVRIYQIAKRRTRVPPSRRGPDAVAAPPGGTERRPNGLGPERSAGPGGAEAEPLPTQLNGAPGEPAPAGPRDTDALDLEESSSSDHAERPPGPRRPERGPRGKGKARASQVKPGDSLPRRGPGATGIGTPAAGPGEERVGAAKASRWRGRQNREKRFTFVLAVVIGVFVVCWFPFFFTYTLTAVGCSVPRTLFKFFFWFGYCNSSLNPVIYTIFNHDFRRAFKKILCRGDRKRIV
Method: To evaluate in radioligand binding assays the activity of compounds of the invention, human recombinant adrenergic α2A receptor expressed in insect Sf9 cells (Uhlen, S. et al, J. Pharmacol. Exp. Ther. 271:1558, 1994) in a modified Tris-HCl buffer (50 mM Tris-HCl, pH 7.4, 12.5 mM MgCl2, 2 mM EDTA) was used. Compounds of invention were incubated with 1 nM [^3H]MK-912 for 60 min at 25° C. MK912 is (2S-trans)-1,3,4,5′,6,6′,7,12b-octahydro-1′,3′-dimethyl-spiro[2H-benzofuro[2,3-a]quinolizine-2,4′(1′H)-pyrimidin]-2′(3′H)-one hydrochloride. Non-specific binding was estimated in the presence of 10 μM WB-4101 (2-(2,6-Dimethoxyphenoxyethyl)aminomethyl-1,4-benzodioxane hydrochloride). Receptor proteins were filtered and washed, the filters were then counted to determine [^3H]MK-912 specifically bound. […] Compounds of the invention were tested in this biochemical assay and percent inhibition of specific binding was determined. Biochemical assay results are presented as the percent inhibition of specific binding in Table B1.

[2] = biological target: T2, human recombinant adrenergic α2B receptor (Homo sapiens, UniProt P18089); assay: Radioligand binding, adrenergic α2B ([3H]Rauwolscine); details: for Percentage inhibition of ligand binding, Adrenergic α2B (0.03 μM): compound at 0.03 μM; for pKi: read-out: Ki α2B; for inhibition at 0.03 µM: read-out: Percentage inhibition of ligand binding, Adrenergic α2B (0.03 μM), compound at 0.03 μM; for Percentage inhibition of ligand binding, Adrenergic α2B: 0.03 μM compound; for Percentage inhibition of ligand binding, Adrenergic α2B (0.03 μM) / Percentage inhibition of ligand binding, Adrenergic α2B: 0.03 µM
T2 construct: expressed in transfected cells; host or cells: CHO-K1
T2 sequence (P18089 1-450): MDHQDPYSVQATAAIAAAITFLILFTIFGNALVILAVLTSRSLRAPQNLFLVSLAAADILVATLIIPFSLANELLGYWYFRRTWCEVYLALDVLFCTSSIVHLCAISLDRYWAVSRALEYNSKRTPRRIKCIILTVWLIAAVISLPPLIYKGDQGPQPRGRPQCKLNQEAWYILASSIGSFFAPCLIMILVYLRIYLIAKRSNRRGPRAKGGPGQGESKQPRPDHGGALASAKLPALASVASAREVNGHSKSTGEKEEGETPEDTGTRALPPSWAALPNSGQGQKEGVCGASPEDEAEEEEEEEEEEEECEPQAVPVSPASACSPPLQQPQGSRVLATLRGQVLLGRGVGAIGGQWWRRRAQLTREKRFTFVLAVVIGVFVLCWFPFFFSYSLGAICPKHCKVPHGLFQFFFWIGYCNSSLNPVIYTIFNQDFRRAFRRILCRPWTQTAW
Method: To evaluate in radioligand binding assays the activity of compounds of the invention, human recombinant adrenergic α2B receptor expressed in Chinese hamster ovary (CHO) K1 cells (Uhlen, S. et al, Eur. J. Pharmacol. 343(1):93, 1998) in a modified Tris-HCl buffer (50 mM Tris-HCl, pH 7.4, 12.5 mM MgCl2, 1 mM EDTA, 0.2% BSA) was used. Compounds of the invention were incubated with 2.5 nM [3H]Rauwolscine for 60 min at 25° C. Non-specific binding was estimated in the presence of 10 μM Prazosin. Receptor proteins were filtered and washed, the filters were then counted to determine [3H]Rauwolscine specifically bound. […] Compounds of the invention were tested in this biochemical assay and percent inhibition of specific binding was determined. Biochemical assay results are presented as the percent inhibition of specific binding in Table B1.

[3] = [3H]MK-912, repeat datapoints each shown
[4] = [3H]Rauwolscine, repeat datapoints each shown
[5] = read-out: Percentage inhibition of ligand binding, Adrenergic α2B (0.1 μM), compound at 0.1 μM, [3H]Rauwolscine, repeat datapoints each shown
[6] = read-out: Percentage inhibition of ligand binding, Adrenergic α2A (0.1 μM), compound at 0.1 μM, [3H]MK-912, repeat datapoints each shown
[7] = 0.1 μM compound, read-out: Percentage inhibition of ligand binding, Adrenergic α2B

- Percentage inhibition of ligand binding, Adrenergic α2A (0.1 μM) [1, 3]: 63%
SMILES: Cc1ccc2c(c1)c1c(n2CC(O)c2ccc(C#N)cc2)CCN(C)C1 (single isomer, unassigned) [142b]

- Percentage inhibition of ligand binding, Adrenergic α2B (0.03 μM) [2, 4]: 27%
- Percentage inhibition of ligand binding, Adrenergic α2A (0.1 μM) [1, 3]: 61%
SMILES: C/C(=C\n1c2c(c3cc(C)ccc31)C1CCCCN1CC2)c1ccc(F)cc1 (single isomer, unassigned) [199b]

- Percentage inhibition of ligand binding, Adrenergic α2B (0.03 μM) [2, 4]: 69%
- Percentage inhibition of ligand binding, Adrenergic α2A (0.1 μM) [1, 3]: 21%
SMILES: Cc1cnc2c(c1)c1c(n2CC(O)c2ccc(F)cc2)CCN(C)C1 (single isomer, unassigned) [136b]

- Percentage inhibition of ligand binding, Adrenergic α2B (0.03 μM) [2, 4]: 94%
- Percentage inhibition of ligand binding, Adrenergic α2A (0.1 μM) [1, 3]: 96%
SMILES: C/C(=C\n1c2c(c3cc(C)ccc31)C1CCCCN1CC2)c1ccc(F)cc1 (single isomer, unassigned) [199a]

- inhibition at 0.1 µM [2, 5]: -5%
SMILES: CN1Cc2c(n(CCc3ccc(C(F)(F)F)nc3)c3ncccc23)C(C)(C)C1 [II-215]

- inhibition at 0.1 µM [2, 5]: 70%
- inhibition at 0.1 µM [1, 6]: 69%
SMILES: Cc1ccc2c(c1)c1c(n2CCC2CCCCC2)CCN(C)C1 [compound 205]

- pKi [2]: 7.82
- inhibition at 0.03 µM [2, 4]: 43%
- inhibition at 0.1 µM [2, 5]: 74%
SMILES: Cc1ccc2c(c1)c1c(n2C(C)C(O)c2ccncc2)CCN(C)C1 (single isomer, unassigned) [127a]

- inhibition at 0.1 µM [2, 5]: 63%
- inhibition at 0.1 µM [1, 6]: 88%
SMILES: Cc1ccc(CCn2c3c(c4cc(C(F)(F)F)ccc42)CN(C)CC3)cc1 [compound 210]

SMILES: Cc1ccc2c(c1)c1c(n2CC(N)c2ccncc2)CC2CCC1N2C (single isomer, unassigned) [155a]
- Percentage inhibition of ligand binding, Adrenergic α2A (0.1 μM) [1, 3]: −1%

- inhibition at 0.1 µM [2, 5]: -4%
SMILES: FC(F)(F)c1ccc(CCn2c3c(c4cccnc42)CN2CCCC2C3)cn1 (stereo not drawn) [II-236]

- inhibition at 0.1 µM [2, 5]: 107%
- pKi [1]: 8.61
- inhibition at 0.1 µM [1, 6]: 87%
SMILES: Cc1ccc2c(c1)c1c(n2CCc2ccccc2F)CCN(C)C1 [compound 204]

- inhibition at 0.1 µM [1, 6]: 17%
SMILES: Cc1ccc2c(c1)c1c(n2CC(c2ccncc2)N2CCCC2)CCN(C)C1 (single isomer, unassigned) [152a]

- Percentage inhibition of ligand binding, Adrenergic α2A ([1]; 0.1 μM compound): 64%
SMILES: CN1CCc2c(n(CC(O)c3ccc(F)c(F)c3)c3ccc(Cl)cc23)CC1 (single isomer, unassigned) [339b]

- inhibition at 0.1 µM [2, 7]: 47%
SMILES: C/C(=C\n1c2c(c3cc(C)ccc31)CN(C)CC2(C)C)c1ccc(C)nc1 [II-61]

- Percentage inhibition of ligand binding, Adrenergic α2B [2]: 12%
- inhibition at 0.1 µM ([1]; 0.1 μM compound, read-out: Percentage inhibition of ligand binding, Adrenergic α2A): 7%
SMILES: Cc1cnc2c(c1)c1c(n2CC(O)c2ccc(C)nc2)CCN(C)C1 (single isomer, unassigned) [II-100a]

- Percentage inhibition of ligand binding, Adrenergic α2B (0.03 μM) [2, 4]: 93%
SMILES: Cc1ccc2c(c1)c1c(n2CC(C)(O)c2cccnc2)CCN(C)C1C (single isomer, unassigned) [II-152a]

- inhibition at 0.1 µM [2, 5]: 50%
SMILES: FC(F)(F)c1ccc(CCn2c3c(c4cccnc42)C2CCCN2CC3)cn1 (stereo not drawn) [IV-2]

- inhibition at 0.1 µM [2, 5]: 17%
SMILES: Cc1cnc2c(c1)c1c(n2CCc2ccc(C(F)(F)F)nc2)CC2CCCN2C1 (stereo not drawn) [II-239]

- Percentage inhibition of ligand binding, Adrenergic α2A ([1]; 0.1 μM compound): 4%
SMILES: OCCN1CCc2c(c3cc(Cl)ccc3n2CC(O)c2ccncc2)C1 (stereo not drawn) [II-93b]

- Percentage inhibition of ligand binding, Adrenergic α2B (0.03 μM) [2, 4]: 11%
- Percentage inhibition of ligand binding, Adrenergic α2A (0.1 μM) [1, 3]: −11%
SMILES: Cc1cnc2c(c1)c1c(n2CC(C)(O)c2ccc(C)nc2)CCN2CCCC12 (single isomer, unassigned) [148d]

- Percentage inhibition of ligand binding, Adrenergic α2B [2]: 5%
SMILES: Cc1ccc2c(c1)c1c(n2C(C)C(O)c2ccncc2)CCN(C)C1 (stereo not drawn) [II-98b]

- inhibition at 0.03 µM [2, 4]: 98%
SMILES: C/C(=C\n1c2c(c3cc(C)ccc31)C1CCCN1CC2)c1ccc(C)nc1 (stereo not drawn) [193a, 10-methyl-7-(2-(6-methylpyridin-3-yl)prop-1-enyl)-2,3,5,6,7,11c-hexahydro-1H-indolizino[7,8-b]indole]

- inhibition at 0.1 µM [2, 7]: 103%
SMILES: C/C(=C\n1c2c(c3cc(C)ccc31)CN(C)CC2)c1cnccc1C [II-76, (E)-2,8-dimethyl-5-(2-(4-methylpyridin-3-yl)prop-1-en-1-yl)-2,3,4,5-tetrahydro-1H-pyrido[4,3-b]indole]

- Percentage inhibition of ligand binding, Adrenergic α2B [2]: 8%
- Percentage inhibition of ligand binding, Adrenergic α2A ([1]; 0.1 μM compound): 0%
SMILES: OCCN1CCc2c(c3cc(Cl)ccc3n2CC(O)c2cccnc2)C1 (single isomer, unassigned) [II-94a]

SMILES: CC(O)(Cn1c2c(c3cc(Cl)ccc31)CN(C1CCC1)CC2)c1cccnc1 (single isomer, unassigned) [II-118a]
- Percentage inhibition of ligand binding, Adrenergic α2B (0.03 μM) [2, 4]: 27%
- inhibition at 0.1 µM [1, 6]: 3%

- inhibition at 0.1 µM [2, 5]: 102%
- inhibition at 0.1 µM [1, 6]: 97%
SMILES: CN1CCc2c(c3ccc(Cl)cc3n2CCc2ccccc2)C1 [compound 215]

- pKi [2]: 9.29
- inhibition at 0.03 µM [2, 4]: 102%
- inhibition at 0.1 µM [1, 6]: 35%
SMILES: Cc1ccc2c(c1)c1c(n2CC(N=[N+]=[N-])c2ccncc2)CCN(C)C1 (racemic) [V-1, 5-(2-azido-2-(pyridin-4-yl)ethyl)-2,3,4,5-tetrahydro-2,8-dimethyl-1H-pyrido[4,3-b]indole]

- inhibition at 0.1 µM [2, 5]: 84%
- inhibition at 0.1 µM [1, 6]: 80%
SMILES: CN1CCc2c(c3cc(C(F)(F)F)ccc3n2CCc2ccccc2)C1 [compound 209]

- inhibition at 0.1 µM [2, 5]: 64%
- inhibition at 0.1 µM [1, 6]: 66%
SMILES: CN1CCc2c(c3cc(Cl)ccc3n2CCC2CCCCC2)C1 [compound 212]

- inhibition at 0.1 µM [2, 7]: 34%
SMILES: C/C(=C\n1c2c(c3cc(C)ccc31)CN(C)CC2(C)C)c1ccncc1 [II-70]

- inhibition at 0.1 µM [2, 5]: -5%
SMILES: Cc1ccc(CCn2c3c(c4cccnc42)CN(C)CC3(C)C)cn1 [II-133]

- inhibition at 0.1 µM [2, 5]: 98%
SMILES: Cc1cnc2c(c1)c1c(n2CCc2ccc(C(F)(F)F)nc2)CCN2CCCC12 (stereo not drawn) [II-238]

- inhibition at 0.1 µM [2, 7]: 36%
SMILES: Cc1ccc2c(c1)c1c(n2CCc2ccc(C(F)(F)F)nc2)C(C)(C)CN(C)C1 [II-40]

From patent publication US8791132B2, “Compounds and methods for treatment of hypertension” (Medivation Technologies, Inc., priority 2011, dated 2014)
